Where two headings read alike, the source gives them in different places.
Columns and labels:
[1] = Example 3: posaconazole posttreatment washout; format: in vivo; conditions: human, plasma, oral, 300 mg
[2] = target: CYP3A4 (Homo sapiens, UniProt P08684); conditions: human
Source text: Blood plasma levels may be described in various ways, such as area under the plasma concentration curve (AUC) and peak plasma concentration (Cmax). Baseline levels and posaconazole interaction levels for CYP3A4 substrate drugs may be compared using the geometric mean ratio (GMR) of AUC and Cmax. […] GMR is the standard industry and regulatory method for assessing the ratio of change of a pharmacokinetic variable (such as AUC) relative to its own baseline value (e.g., in a patient that was not treated with posaconazole). Once the level of substrate drug (AUC or Cmax) during co-administration with posaconazole and a CYP3A4 substrate drug is known, a function can be derived using conventional pharmacological methods to estimate how the AUC or plasma level of the CYP3A4 substrate drug is expected to decay over time after stopping administration of posaconazole. Such a function can be used to provide a plot of the decay GMR of AUC (or Cmax) of the CYP3A4 substrate drug versus time due to its interaction with posaconazole, based on the stated half-life of posaconazole.
The expected DDI decay curve can also be calculated for Cmax GMR by substituting Cmax during co-administration for AUC during co-administration in equation 1. As used herein, “expected levels” and “predicted levels” and the like, refer to the AUC or Cmax GMR values calculated using equation 1.

[3] = Pooled posaconazole steady-state concentration and elimination half-life, clinical studies BOW-001 and BOW-002; format: in vivo, human; conditions: for half-life: human, in vivo
Source text: The two clinical studies used the same protocol to measure posaconazole's elimination half-life, allowing for the data for normal patients from each study to be combined (“All Normal”) and data for obese patients from each study to be combined (“All Obese”).

[4] = Example 2: posaconazole pharmacokinetics in normal-weight and obese subjects; format: in vivo, human; conditions: for Steady-state concentration, Mean ± SD: posaconazole 300 mg once daily; for half-life: human, plasma, oral
Experimental: On study Day 4, subjects received two doses of posaconazole (300 mg BID). On the mornings of Days 5-17, they received posaconazole 300 mg once daily. As posaconazole is to be taken with food, subjects were fed a continental breakfast in the clinical research unit after receiving posaconazole and prior to discharge from the unit. Venous blood samples were drawn into EDTA containing tubes prior to the posaconazole dose on Days 4, 7, 11, and prior to the lurasidone dose on Days 14, 20, 23, 26 and 30. An additional blood sample was taken 5 hours after posaconazole dosage on Day 17, for approximate determination of maximum posaconazole plasma concentrations, and on Day 33. Samples were centrifuged and the plasma was separated and frozen at −70° C. until the time of assay.
Analytic Methods. All bioassay analyses were performed by Keystone Bioanalytical, North Wales, PA. For analysis of posaconazole, the internal standard (posaconazole-D4) was added to the biological samples. Plasma samples were precipitated using formic acid in acetonitrile and isolated using a Phree phospholipid removal tube. An aliquot of the sample was injected onto a high-pressure liquid chromatograph with tandem mass spectrometry triple quadrupole mass spectrometer (SCIEX API-5500). The analytical column was a Unison CK-218, 3 μm particle size HPLC column (50×2 mm) from Imtakt USA (Portland, OR). The mobile phase consisted of an aqueous component (0.25% formic acid and 10 mM ammonium formate in water) and an organic component (0.1% formic acid in acetonitrile) and was delivered by gradient, with the organic component going from 35% to 100%. The m/z transitions monitored were 701.6>614.4 for posaconazole and 705.6>618.4 for the internal standard. The calibration curve ranged from 1-1000 ng/mL (8 concentrations in duplicate).
Pharmacokinetic and Statistical Methods. […] The apparent washout half-life of posaconazole was calculated by log-linear regression analysis starting with the plasma concentration on Day 20 and ending with the last non-zero value. Differences between normal-weight and obese cohorts were evaluated by Student's t-test for independent groups. The relation between measures of body habitus and posaconazole washout half-life for individual subjects was evaluated by linear regression analysis.

[5] = Plasma posaconazole concentrations and washout half-life in normal-weight and obese subjects; format: in vivo, human; conditions: for Trough (predose) steady-state posaconazole concentration: Day 15, posaconazole 300 mg delayed-release tablet daily; for half-life: human, plasma, oral, from day 15, read-out: Postdosage washout half-life of posaconazole (converted)
Experimental: On study day 2, subjects received posaconazole (300 mg delayed-release tablet twice a day), and on the mornings of days 3-15, subjects received posaconazole (300 mg delayed-release tablet daily). Because posaconazole is to be taken with food,^6 subjects were fed a continental breakfast in the clinical research unit after receiving posaconazole and before discharge from the unit. […] One additional blood sample was taken 5 hours after the posaconazole dose on day 15 for approximate determination of maximum plasma posaconazole concentrations. Samples were centrifuged, and the plasma was separated and frozen at −70° C. until the time of assay of plasma posaconazole concentrations.
Analytic Methods. All bioassay analysis was performed by Keystone Bioanalytical (North Wales, PA). For analysis of posaconazole, the internal standard (posaconazole-d4) was added to the biological samples. Plasma samples were precipitated using formic acid in acetonitrile and isolated using a Phree phospholipid removal tube, and then an aliquot of the sample was injected onto a high-pressure liquid chromatography with tandem mass spectrometry triple quadrupole mass spectrometer (Sciex API-5500). The analytical column was a Unison CK-218, 3 μm particle size HPLC column (50×2 mm) from Imtakt USA (Portland, OR). The mobile phase consisted of an aqueous component (0.25% formic acid and 10 mmol/L ammonium formate in water) and an organic component (0.1% formic acid in acetonitrile) and was delivered by gradient, with the organic component going from 35% to 100%. The m/z transitions monitored were 701.6→614.4 for posaconazole and 705.6→618.4 for the internal standard. The calibration curve ranged from 1 to 1000 ng/mL (8 concentrations in duplicate). The interassay precision of this method (as percentage coefficient of variance) was 4.28% to 7.14%, and the interassay accuracy (as percentage relative error) was […] to 3.12%.
For each subject, the predose plasma posaconazole concentration on study day 15 was used as a steady-state concentration. The apparent washout half-life of posaconazole was calculated by log-linear regression analysis starting with the plasma concentration on day 15 and ending with the last nonzero value. Differences between normal-weight and obese cohorts were evaluated by Student t-test for independent groups.

[6] = Noxafil label, cited from earlier work

Sequence of CYP3A4 (P08684 whole entry): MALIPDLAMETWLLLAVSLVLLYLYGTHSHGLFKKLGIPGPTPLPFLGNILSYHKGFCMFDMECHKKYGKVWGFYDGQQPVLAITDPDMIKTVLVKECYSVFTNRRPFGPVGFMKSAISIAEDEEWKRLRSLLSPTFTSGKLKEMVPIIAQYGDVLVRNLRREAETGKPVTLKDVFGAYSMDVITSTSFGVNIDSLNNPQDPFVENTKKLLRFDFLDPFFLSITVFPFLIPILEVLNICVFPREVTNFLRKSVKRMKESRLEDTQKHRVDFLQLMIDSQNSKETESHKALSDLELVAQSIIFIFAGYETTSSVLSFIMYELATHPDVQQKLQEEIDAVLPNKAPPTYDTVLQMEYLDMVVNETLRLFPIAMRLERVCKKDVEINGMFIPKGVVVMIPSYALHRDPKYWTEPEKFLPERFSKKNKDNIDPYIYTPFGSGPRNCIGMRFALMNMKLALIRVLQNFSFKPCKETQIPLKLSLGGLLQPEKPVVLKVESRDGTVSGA

With `CC[C@@H]([C@H](C)O)n1ncn(-c2ccc(N3CCN(c4ccc(OC[C@@H]5CO[C@@](Cn6cncn6)(c6ccc(F)cc6F)C5)cc4)CC3)cc2)c1=O` [posaconazole] the half-life ([1]; normals) was 36 h, the half-life ([1]; obese subjects) was 64 h and the “Kel=ln(2)/(31 hours/24 hours)” value [2] was “about 0.5366”. The “Css, Mean” value ([3]; All Normal (pooled)) was 2864 ng/mL, the “Css, Mean” value ([3]; All Obese (pooled)) was 1860 ng/mL and the “Css, Mean” value ([3]; BOW-001 Normal) was 3071 ng/mL. For the same compound, the “Css, Mean” value ([3]; BOW-001 Obese) was 2258 ng/mL, the “Css, Mean” value ([3]; BOW-002 Normal) was 2514 ng/mL and the “Css, Mean” value ([3]; BOW-002 Obese) was 1462 ng/mL. The half-life ([3]; All Normal (pooled), normal weight patients, read-out: t1/2, Mean (elimination half-life) (converted)) was 33.6 h, the half-life ([3]; All Obese (pooled), obese patients, read-out: t1/2, Mean (elimination half-life) (converted)) was 58.3 h and the half-life ([3]; BOW-001 Normal, read-out: t1/2, Mean (converted)) was 35.7 h. It also gave a half-life ([3]; BOW-001 Obese, read-out: t1/2, Mean (converted)) of 64.5 h, a half-life ([3]; BOW-002 Normal, read-out: t1/2, Mean (converted)) of 30.9 h and a half-life ([3]; BOW-002 Obese, read-out: t1/2, Mean (converted)) of 52.5 h. The “Steady-state concentration, Mean ± SD” value ([4]; Normal) was 2377 ± 1188 ng/mL, the “Steady-state concentration, Mean ± SD” value ([4]; Obese) was 1462 ± 649 ng/mL and the half-life ([4]; Normal, read-out: Washout half-life, Mean ± SD (converted)) was 31 h. The half-life ([4]; Obese, read-out: Washout half-life, Mean ± SD (converted)) was 53 h, the half-life ([4]; controls (normal-weight), read-out: Mean washout half-life (converted)) was 30.7 h and the half-life ([4]; obese group, read-out: Mean washout half-life (converted)) was 52.6 h. The half-life ([4]; two obese subjects, read-out: very long half-life values (converted)) was 121 h, the “Trough (predose) steady-state posaconazole concentration” value ([5]; normal-weight subjects) was 3071 ± 1422 ng/mL and the “Trough (predose) steady-state posaconazole concentration” value ([5]; obese subjects) was 2258 ± 952 ng/mL. For the same compound, the half-life ([5]; normal-weight subjects) was 35.8 h, the half-life ([5]; obese subjects) was 64.3 h and the “Time posaconazole plasma concentrations persisted after stopping treatment” value ([5]; most subjects) was “at least 2 weeks”. For the same compound, the posaconazole half-life ([6]; after administration of posaconazole oral suspension) was 31 to 37 h, the posaconazole half-life ([6]; after dosing with posaconazole injection) was “about 24 hours” and the posaconazole half-life ([6]; patients with mild hepatic impairment) was 39 h. The posaconazole half-life ([6]; patients with moderate hepatic impairment) was 27 h, the posaconazole half-life ([6]; patients with normal hepatic function) was 27 h and the posaconazole half-life ([6]; patients with severe hepatic impairment) was 43 h.

Source: US20230414607A1, “METHODS OF TREATMENT” (BOW RIVER LLC, priority 2017, published 2023)
